The record followed here is ChEMBL document CHEMBL4507270 (2021).

In experiment [1] the target is Epithelial discoidin domain-containing receptor 1 (Homo sapiens, UniProt Q08345). Put plainly: Inhibition of DDR1 at compound concentration of 10.0 uM using the ScanMax (DiscoverX).
The target of experiment [2] is T1, Discoidin domain-containing receptor 2 (Homo sapiens, UniProt Q16832).
T1 sequence (Q16832 whole entry): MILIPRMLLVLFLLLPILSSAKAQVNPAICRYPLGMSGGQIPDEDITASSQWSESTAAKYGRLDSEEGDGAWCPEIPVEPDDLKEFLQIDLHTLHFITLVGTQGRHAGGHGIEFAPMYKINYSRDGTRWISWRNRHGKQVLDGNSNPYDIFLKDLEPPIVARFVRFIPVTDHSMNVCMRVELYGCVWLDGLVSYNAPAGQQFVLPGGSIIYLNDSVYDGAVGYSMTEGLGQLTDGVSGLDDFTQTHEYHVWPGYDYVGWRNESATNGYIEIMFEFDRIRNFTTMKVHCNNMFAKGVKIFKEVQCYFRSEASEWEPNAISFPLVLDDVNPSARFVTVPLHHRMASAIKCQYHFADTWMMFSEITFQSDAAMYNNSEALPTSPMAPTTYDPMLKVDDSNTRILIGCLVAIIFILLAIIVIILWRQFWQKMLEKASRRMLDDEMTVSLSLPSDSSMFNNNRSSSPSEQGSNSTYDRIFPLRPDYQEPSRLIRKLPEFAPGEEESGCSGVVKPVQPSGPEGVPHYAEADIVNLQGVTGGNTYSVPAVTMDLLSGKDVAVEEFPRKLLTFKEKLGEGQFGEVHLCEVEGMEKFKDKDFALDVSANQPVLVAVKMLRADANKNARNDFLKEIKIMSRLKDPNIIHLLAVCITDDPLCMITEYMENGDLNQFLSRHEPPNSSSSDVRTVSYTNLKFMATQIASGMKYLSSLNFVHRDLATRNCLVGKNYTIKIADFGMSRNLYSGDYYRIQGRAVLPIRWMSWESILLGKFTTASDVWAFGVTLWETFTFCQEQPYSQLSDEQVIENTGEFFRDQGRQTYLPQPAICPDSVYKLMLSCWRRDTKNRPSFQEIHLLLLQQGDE
Put plainly: Inhibition of DDR2 at compound concentration of 10.0 uM using the ScanMax (DiscoverX).

Experiment [3] concerns the target 5-hydroxytryptamine receptor 2B (Homo sapiens, UniProt P41595). Put plainly: GPCRScan assay: inhibition of 5-HT2B. Also on record: radioligand conc. used [nm] 1.0 – 2.0, parental cells stable HEK.
For experiment [4], the target named is 5-hydroxytryptamine receptor 2C (Homo sapiens, UniProt P28335). Put plainly: GPCRScan assay: inhibition of 5-HT2C. Details: radioligand conc. used [nm] 1.0 – 2.5, parental cells HEK T.
Experiment [5] has as its target D(2) dopamine receptor (Homo sapiens, UniProt P14416). As to the kind of experiment: GPCRScan assay: inhibition of D2. Details: radioligand conc. used [nm] 0.4 – 1.0, parental cells stable fibroblast.
Experiment [6] has as its target Sodium-dependent noradrenaline transporter (Homo sapiens, UniProt P23975). Put plainly: GPCRScan assay: inhibition of NET. Also on record: radioligand conc. used [nm] 1.3 – 5.0, parental cells stable HEK.
For experiment [7], the target named is Mu-type opioid receptor (Homo sapiens, UniProt P35372). As to the kind of experiment: GPCRScan assay: inhibition of MOR. Also on record: radioligand conc. used [nm] 1.0 – 2.0, parental cells stable HEK.
The target of experiment [8] is Delta-type opioid receptor (Homo sapiens, UniProt P41143). As to the kind of experiment: GPCRScan assay: inhibition of DOR. Also on record: radioligand conc. used [nm] 1.0 – 2.0, parental cells stable HEK.
The target in experiment [9] is T2, Tyrosine-protein kinase receptor Tie-1 (Homo sapiens, UniProt P35590). As to the kind of experiment: NanoBRET assay (SGC Frankfurt) with TIE1.
In experiment [10] the target is T3, Angiopoietin-1 receptor (Homo sapiens, UniProt Q02763). As to the kind of experiment: KINOMEScan (DiscoveRx Corp) with TEK.
Experiment [11] has as its target Serine/threonine-protein kinase 10 (Homo sapiens, UniProt O94804). Put plainly: NanoBRET assay (SGC Frankfurt) with STK10. On the technique in general: BRET reads energy transfer from a luciferase to a nearby fluorophore.
Experiment [12] concerns the target T2, Tyrosine-protein kinase receptor Tie-1. The following applies: Compound concentration 1000.0 nM.
For experiment [13], the target named is 5-hydroxytryptamine receptor 6 (Homo sapiens) (UniProt P50406). The following applies: Compound concentration 10.0 uM.
Experiment [14] has as its target D(1B) dopamine receptor (Homo sapiens) (UniProt P21918). As to conditions: Compound concentration 10.0 uM.
In experiment [15] the target is GABA-A receptor; anion channel (Rattus norvegicus) (UniProt O09028+P15431+P18506+P18508+P19969+P20236+P23574+P23576+P28471+P28473+P30191+P62813+P63079+P63138+Q91ZM7+Q9ES14). The following applies: Compound concentration 10.0 uM.
The target of experiment [16] is Beta-3 adrenergic receptor (Homo sapiens, UniProt P13945). As to the kind of experiment: GPCRScan assay: inhibition of Beta3. Also on record: radioligand conc. used [nm] 0.2 – 0.5, parental cells HEK Flp-In.
Experiment [17] has as its target T3, Angiopoietin-1 receptor. Put plainly: Bayer in-house kinase assay with TEK.
In experiment [18] the target is Vascular endothelial growth factor receptor 2 (Homo sapiens, UniProt P35968). As to the kind of experiment: KINOMEScan (DiscoveRx Corp) with KDR.
The target of experiment [19] is Fibroblast growth factor receptor 1 (Homo sapiens, UniProt P11362). Put plainly: Bayer in-house kinase assay with FGFR1.
For experiment [20], the target named is Platelet-derived growth factor receptor beta (Homo sapiens, UniProt P09619). As to the kind of experiment: Bayer in-house kinase assay with PDGFRB.
The target of experiment [21] is Vascular endothelial growth factor receptor 3 (Homo sapiens, UniProt P35916). As to the kind of experiment: Bayer in-house kinase assay with FLT4.
In experiment [22] the target is Fibroblast growth factor receptor 3 (Homo sapiens, UniProt P22607). Put plainly: Bayer in-house kinase assay with […].
The target of experiment [23] is D(3) dopamine receptor (Homo sapiens) (UniProt P35462). As to conditions: Compound concentration 10.0 uM.
Experiment [24] concerns the target Histamine H3 receptor (Homo sapiens) (UniProt Q9Y5N1). As to conditions: Compound concentration 10.0 uM.
The target in experiment [25] is Histamine H4 receptor (Homo sapiens) (UniProt Q9H3N8). As to conditions: Compound concentration 10.0 uM.

The structures appear in SMILES notation. Activity calls are given as the source filed them. No cut-off for these calls is given here.

T2 sequence (P35590 whole entry): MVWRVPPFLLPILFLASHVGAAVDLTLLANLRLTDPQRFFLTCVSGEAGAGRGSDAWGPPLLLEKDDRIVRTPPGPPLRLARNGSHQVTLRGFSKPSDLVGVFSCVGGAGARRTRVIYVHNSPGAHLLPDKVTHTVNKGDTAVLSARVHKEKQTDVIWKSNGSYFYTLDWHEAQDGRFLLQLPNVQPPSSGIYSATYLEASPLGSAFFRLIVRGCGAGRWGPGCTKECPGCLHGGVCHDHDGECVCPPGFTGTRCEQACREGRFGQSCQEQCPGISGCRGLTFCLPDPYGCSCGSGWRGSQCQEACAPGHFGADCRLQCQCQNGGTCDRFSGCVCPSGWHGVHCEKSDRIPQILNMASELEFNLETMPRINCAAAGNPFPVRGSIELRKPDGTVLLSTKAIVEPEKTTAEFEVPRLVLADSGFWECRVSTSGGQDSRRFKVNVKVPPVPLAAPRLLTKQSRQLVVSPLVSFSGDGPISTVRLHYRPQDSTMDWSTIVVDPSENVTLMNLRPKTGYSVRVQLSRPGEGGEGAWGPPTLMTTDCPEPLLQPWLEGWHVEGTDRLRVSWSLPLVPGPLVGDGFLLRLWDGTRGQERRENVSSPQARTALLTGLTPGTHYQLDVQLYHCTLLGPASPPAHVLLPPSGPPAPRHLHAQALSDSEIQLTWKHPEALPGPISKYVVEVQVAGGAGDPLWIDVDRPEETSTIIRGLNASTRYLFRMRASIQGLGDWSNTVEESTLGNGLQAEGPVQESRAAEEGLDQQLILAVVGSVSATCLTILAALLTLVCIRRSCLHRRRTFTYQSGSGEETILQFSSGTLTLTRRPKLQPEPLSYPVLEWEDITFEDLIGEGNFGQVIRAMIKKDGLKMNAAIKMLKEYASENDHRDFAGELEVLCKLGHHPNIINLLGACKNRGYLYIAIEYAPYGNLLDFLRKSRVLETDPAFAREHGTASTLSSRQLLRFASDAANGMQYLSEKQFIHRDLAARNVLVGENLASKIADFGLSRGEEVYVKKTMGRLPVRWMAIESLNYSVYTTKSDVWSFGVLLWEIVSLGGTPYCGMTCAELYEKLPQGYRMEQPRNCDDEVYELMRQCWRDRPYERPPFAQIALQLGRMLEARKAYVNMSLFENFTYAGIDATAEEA
Sequence of Serine/threonine-protein kinase 10 (O94804 whole entry): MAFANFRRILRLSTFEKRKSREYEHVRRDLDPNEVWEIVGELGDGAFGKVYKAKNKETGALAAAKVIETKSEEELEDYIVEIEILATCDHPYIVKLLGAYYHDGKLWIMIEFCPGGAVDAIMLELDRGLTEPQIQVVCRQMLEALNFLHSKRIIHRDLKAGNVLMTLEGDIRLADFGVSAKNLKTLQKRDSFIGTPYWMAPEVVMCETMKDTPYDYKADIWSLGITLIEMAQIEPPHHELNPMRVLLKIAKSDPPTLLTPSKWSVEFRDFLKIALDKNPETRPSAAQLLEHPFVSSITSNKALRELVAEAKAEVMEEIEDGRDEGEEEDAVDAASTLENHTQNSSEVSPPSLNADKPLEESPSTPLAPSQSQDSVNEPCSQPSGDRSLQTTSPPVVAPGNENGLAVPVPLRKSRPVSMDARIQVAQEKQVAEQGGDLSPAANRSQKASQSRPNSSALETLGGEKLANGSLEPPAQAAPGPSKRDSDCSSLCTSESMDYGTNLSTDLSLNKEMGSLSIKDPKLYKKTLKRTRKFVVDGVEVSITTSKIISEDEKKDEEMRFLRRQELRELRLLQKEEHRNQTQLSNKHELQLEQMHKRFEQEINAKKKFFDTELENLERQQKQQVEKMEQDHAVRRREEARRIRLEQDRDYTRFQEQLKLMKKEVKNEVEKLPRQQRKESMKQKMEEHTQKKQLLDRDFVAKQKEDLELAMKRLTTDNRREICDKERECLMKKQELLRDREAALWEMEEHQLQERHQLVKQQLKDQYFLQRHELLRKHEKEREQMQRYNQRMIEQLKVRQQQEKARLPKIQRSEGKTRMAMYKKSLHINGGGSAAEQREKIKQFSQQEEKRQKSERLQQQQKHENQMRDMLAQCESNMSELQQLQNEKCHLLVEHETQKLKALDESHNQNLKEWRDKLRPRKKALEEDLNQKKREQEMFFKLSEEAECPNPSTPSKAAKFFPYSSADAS
T3 sequence (Q02763 whole entry): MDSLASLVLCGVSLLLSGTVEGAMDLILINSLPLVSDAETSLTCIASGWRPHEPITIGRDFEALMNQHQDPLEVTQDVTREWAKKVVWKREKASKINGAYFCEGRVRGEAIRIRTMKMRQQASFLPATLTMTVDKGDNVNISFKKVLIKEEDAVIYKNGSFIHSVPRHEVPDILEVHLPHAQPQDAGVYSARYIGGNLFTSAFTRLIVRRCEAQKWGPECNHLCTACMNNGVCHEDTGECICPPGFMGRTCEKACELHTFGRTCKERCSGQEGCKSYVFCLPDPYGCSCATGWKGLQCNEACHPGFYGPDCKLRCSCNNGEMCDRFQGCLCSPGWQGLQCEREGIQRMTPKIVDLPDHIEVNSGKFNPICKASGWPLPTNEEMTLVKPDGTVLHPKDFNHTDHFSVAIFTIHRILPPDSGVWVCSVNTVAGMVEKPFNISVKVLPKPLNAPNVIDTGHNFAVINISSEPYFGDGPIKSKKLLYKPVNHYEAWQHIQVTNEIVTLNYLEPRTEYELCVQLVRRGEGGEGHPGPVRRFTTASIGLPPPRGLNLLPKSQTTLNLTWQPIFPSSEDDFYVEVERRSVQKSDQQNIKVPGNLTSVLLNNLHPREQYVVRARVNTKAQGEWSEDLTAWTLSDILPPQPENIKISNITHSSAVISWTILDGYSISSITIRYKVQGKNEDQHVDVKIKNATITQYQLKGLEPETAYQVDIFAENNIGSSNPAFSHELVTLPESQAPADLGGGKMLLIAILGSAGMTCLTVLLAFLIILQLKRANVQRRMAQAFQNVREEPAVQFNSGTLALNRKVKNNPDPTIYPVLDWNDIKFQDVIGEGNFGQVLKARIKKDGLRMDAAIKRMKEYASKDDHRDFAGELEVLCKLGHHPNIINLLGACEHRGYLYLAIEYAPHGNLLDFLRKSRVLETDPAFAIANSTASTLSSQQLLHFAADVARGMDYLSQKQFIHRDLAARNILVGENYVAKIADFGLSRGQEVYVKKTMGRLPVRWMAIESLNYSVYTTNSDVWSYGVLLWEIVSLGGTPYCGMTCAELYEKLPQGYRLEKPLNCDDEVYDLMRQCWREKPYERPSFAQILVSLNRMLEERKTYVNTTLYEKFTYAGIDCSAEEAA
Sequence of Beta-3 adrenergic receptor (P13945 whole entry): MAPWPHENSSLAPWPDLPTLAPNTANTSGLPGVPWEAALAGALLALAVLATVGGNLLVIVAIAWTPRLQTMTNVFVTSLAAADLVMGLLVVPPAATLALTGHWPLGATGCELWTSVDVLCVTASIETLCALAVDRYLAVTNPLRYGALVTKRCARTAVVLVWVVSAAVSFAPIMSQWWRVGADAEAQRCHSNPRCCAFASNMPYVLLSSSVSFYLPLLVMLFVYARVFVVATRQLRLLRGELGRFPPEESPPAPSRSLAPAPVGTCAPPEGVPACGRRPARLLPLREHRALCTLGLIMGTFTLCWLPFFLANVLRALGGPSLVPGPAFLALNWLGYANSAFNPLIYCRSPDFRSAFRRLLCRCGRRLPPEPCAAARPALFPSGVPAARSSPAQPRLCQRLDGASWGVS
Sequence of D(3) dopamine receptor (Homo sapiens) (P35462 whole entry): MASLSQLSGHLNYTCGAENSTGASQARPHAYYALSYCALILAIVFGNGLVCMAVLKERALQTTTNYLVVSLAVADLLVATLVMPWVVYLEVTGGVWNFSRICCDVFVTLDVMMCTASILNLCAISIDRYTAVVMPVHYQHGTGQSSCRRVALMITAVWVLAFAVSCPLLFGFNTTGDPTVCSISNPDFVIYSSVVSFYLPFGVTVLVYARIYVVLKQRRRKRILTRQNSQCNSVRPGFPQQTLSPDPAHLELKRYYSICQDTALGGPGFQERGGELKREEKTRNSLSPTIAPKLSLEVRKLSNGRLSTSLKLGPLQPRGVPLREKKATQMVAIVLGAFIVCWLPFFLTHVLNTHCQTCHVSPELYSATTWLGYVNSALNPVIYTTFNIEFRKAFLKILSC
Sequence of 5-hydroxytryptamine receptor 6 (Homo sapiens) (P50406 whole entry): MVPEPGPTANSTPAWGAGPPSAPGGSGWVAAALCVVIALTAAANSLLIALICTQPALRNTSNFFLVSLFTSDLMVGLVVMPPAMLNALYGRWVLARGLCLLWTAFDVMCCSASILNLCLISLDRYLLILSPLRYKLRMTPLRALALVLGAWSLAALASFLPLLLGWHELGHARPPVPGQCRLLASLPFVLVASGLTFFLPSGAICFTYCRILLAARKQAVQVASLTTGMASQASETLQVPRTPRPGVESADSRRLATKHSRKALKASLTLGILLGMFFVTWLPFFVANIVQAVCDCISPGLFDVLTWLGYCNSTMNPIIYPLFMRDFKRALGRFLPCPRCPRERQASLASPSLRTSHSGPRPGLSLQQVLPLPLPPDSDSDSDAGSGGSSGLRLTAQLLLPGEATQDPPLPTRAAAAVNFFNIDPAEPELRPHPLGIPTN
Sequence of Delta-type opioid receptor (P41143 whole entry): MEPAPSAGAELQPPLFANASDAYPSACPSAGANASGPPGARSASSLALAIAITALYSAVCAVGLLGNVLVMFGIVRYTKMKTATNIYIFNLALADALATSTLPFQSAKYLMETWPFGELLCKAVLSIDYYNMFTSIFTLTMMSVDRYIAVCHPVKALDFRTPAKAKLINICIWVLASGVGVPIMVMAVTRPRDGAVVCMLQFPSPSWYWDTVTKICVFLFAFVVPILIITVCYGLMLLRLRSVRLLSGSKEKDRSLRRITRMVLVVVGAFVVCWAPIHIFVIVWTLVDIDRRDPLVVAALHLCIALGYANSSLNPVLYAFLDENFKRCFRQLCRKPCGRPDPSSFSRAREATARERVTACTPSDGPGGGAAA

By Kd is commonly meant the concentration at which binding is half-saturated. The term EC50 denotes the midpoint of the concentration-response curve. The low end stands for a more potent agent, the high end for a less potent agent. One may read the IC50 as the point on the concentration scale where inhibition reaches its midpoint. What is called residual activity is the share of the control activity or signal that is left under treatment. One may read the inhibition as the relative decrease from the control value, in per cent. Regarding `Cc1cc(NC(=O)c2cccc(S(F)(F)(F)(F)F)c2)cc(-n2ccn3nc(-c4cccnc4)cc23)c1` [BAY-309], the Kd was 0.0021 µM (active) in experiment [1], 0.063 µM (not active) in [2] and > 20 µM (not active) in experiment [10]. For the same compound, the Ki in experiment [3] amounted to 2.15 µM; in [4] it was 4.86 µM; in experiment [5], 10 µM; in [6] it was 10 µM; in experiment [7], 6.99 µM; in experiment [8], 1.73 µM. For the same compound, the results for the EC50 in [9] and in experiment [11] were 2.6 µM (not active) and 3.2 µM (not active), respectively. Besides, the results for the IC50 in experiment [9] and in experiment [11] were 0.13 µM (not active) and > 10 µM (not active), respectively. In experiment [12], the residual activity is 34.2%. The inhibition was 5.64% in [13], 34.9% in experiment [14] and 33.3% in experiment [15].

With `Cc1cc(C)c(-n2ccn3nc(-c4cccnc4)cc23)cc1NC(=O)c1cc(C#N)cc(S(F)(F)(F)(F)F)c1` [BAY-826], the Ki was 7.1 µM in experiment [16] (read-out: Ki) and 6.68 µM in experiment [16] (read-out: pKi (converted)). The IC50 is 0.00045 µM (active) in [17]; > 10 µM (not active) in experiment [19]; > 20 µM (not active) in [20]; 0.44 µM (not active) in experiment [21]; > 10 µM (not active) in experiment [22]. Further, in experiment [18], the Kd is on record as 1.6 µM (not active). The inhibition was -5.85% in experiment [23], -5.88% in experiment [24] and 11.9% in [25].
